Laboratory results from patent publication US12331054B2, “Perk inhibiting imidazolopyrazine compounds” (HiberCell, Inc., priority 2019, dated 2025).

Columns and labels:
[1] = tested on: eIF2α in HEK293-EGFP-eIF2α cells; assay: PERK Cellular Assay (HEK293-EGFP-eIF2α cells, tunicamycin-induced ER stress, TR-FRET); format: cell-based; details: tunicamycin 2 hours
Method: Stable cell lines were created in HEK293 cells using lentiviral particles harboring an expression vector for GFP-eIF2α. Cells were selected using puromycin and enriched using fluorescence activated cell sorting against GFP. HEK293-EGFP-eIF2α cells were plated at 5000 cells/well in 384-well assay plates and incubated overnight at 37° C., 5% CO2. Inhibitor compounds were added to the wells by Echo acoustic dispensing and incubated for 30 minutes at 37° C., 5% CO2 prior to induction of ER stress by addition of tunicamycin to […] for 2 hours. Cells were lysed and TR-FRET was measured in an EnVision plate reader (PerkinElmer). FRET ratio data was normalized to signal from lysates treated with DMSO vehicle control and plotted as percent inhibition against 10-point; 3-fold dilution series of inhibitors. IC50 values were calculated using 4-parameter logistical fitting in XLFit.

[2] = target: Recombinant human EIF2AK3 (PERK) catalytic domain (amino acids 536-1116) (Homo sapiens (Human), UniProt Q9NZJ5); assay: PERK In Vitro Activity Assay (isolated), TR-FRET kinase assay; details: isolated PERK enzyme, 1.5 μM ATP, read-out: Biochemical IC50
Sequence of Recombinant human EIF2AK3 (PERK) catalytic domain (amino acids 536-1116) (Q9NZJ5 536-1116): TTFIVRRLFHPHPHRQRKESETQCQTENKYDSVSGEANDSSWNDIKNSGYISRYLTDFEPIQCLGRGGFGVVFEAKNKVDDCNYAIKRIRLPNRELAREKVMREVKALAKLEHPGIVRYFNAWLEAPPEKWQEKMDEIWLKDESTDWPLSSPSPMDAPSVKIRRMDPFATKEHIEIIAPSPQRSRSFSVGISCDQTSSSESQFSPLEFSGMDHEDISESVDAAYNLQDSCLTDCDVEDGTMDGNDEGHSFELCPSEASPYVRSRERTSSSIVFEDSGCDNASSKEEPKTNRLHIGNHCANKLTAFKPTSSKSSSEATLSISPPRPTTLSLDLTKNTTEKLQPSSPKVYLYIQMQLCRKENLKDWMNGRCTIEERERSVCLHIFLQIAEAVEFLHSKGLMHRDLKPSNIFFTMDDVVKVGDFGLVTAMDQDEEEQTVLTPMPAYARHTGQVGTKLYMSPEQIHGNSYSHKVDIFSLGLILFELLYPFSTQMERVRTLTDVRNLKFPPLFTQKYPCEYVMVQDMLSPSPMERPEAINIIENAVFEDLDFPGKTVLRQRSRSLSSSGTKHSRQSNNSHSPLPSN
Excerpt: PERK In Vitro Activity Assay (isolated):
In vitro Inhibition of PERK Enzyme Activity (isolated) Recombinant human EIF2AK2 (PKR) catalytic domain (amino acids 252-551), EIF2AK3 (PERK) catalytic domain (amino acids 536-1116), GFP-eIF2a substrate, and Terbium-labelled phospho-eIF2a antibody is obtained (Invitrogen, Carlsbad, CA).
Express and purify HIS-SUMO-GCN2 catalytic domain (amino acids 584-1019) from E. coli. Perform TR-FRET kinase assays in the absence or presence of inhibitors in a reaction buffer consisting of 50 mM HEPES, pH 7.5, 10 mM MgCb, 1.0 mM EGTA, and 0.01% Brij-35, and 100-200 nM GFP-eIF2a substrate. […] Add test compound, initiate the reaction by addition of enzyme, and incubate at room temperature for 45 minutes. Stop the reaction by addition of EDTA to a final concentration of 10 mM, add Terbium-labelled phospho-eIF2a antibody at a final concentration of 2 nM, and incubate for 90 minutes. Monitor the resulting fluorescence in an EnVison® Multilabel reader (PerkinElmer, Waltham, MA). Determine TR-FRET ratios and the resulting IC50 values using a 4-parameter nonlinear logistic equation as shown: Y=(A+((B−A)/(1+(C/x)AD)))) where, Y=% specific inhibition, A=Bottom of the curve, B=Top of the curve, C=absolute IC50 (concentration causing 50% inhibition), and D=hill slope.

Structure (SMILES) | IC50 [1] [µM] | IC50 [2] [µM] | IC50 ([1]; 2 h) [µM]
[2H]C([2H])([2H])c1nc(-c2ccc(NC(=O)C(O)c3cc(F)cc(F)c3)cc2C)c2c(N)nc(C)cn12 (centres unmarked) [Example 45, N-[4-[8-amino-6-methyl-3-(trideuteriomethyl)imidazo[1,5-a]pyrazin-1-yl]-3-methyl-phenyl]-2-(3,5-difluoro-phenyl)-2-hydroxy-acetamide] | 1 to 2 | 0.051 to 0.1 | 
[2H]C([2H])([2H])c1nc(-c2ccc(NC(=O)C(O)c3cc(F)cc(F)c3)cc2C)c2c(N)ncc(C(F)(F)F)n12 (centres unmarked) [Example 46, N-[4-[8-amino-3-(trideuteriomethyl)-5-(trifluoromethyl)imidazo[1,5-a]pyrazin-1-yl]-3-methyl-phenyl]-2-(3,5-difluoro-phenyl)-2-hydroxy-acetamide] | 0.026 to 0.05 | 0.001 to 0.025 | 
[2H]C([2H])([2H])c1nc(-c2ccc(NC(=O)C(O)c3cc(F)cc(F)c3)cc2C)c2c(N)ncc(C(F)(F)F)n12 (centres unmarked) [Example 47, N-[4-[8-amino-3-(trideuteriomethyl)-5-(trifluoromethyl)imidazo[1,5-a]pyrazin-1-yl]-3-methyl-phenyl]-2-(3,5-difluoro-phenyl)-2-hydroxy-acetamide] | 0.101 to 0.25 | 0.026 to 0.05 | 
[2H]C([2H])([2H])c1nc(-c2ccc(NC(=O)C(O)c3cc(F)cc(F)c3)cc2C)c2c(N)ncc(Cl)n12 (centres unmarked) [Example 48, N-[4-[8-amino-5-chloro-3-(trideuteriomethyl)imidazo[1,5-a]pyrazin-1-yl]-3-methyl-phenyl]-2-(3,5-difluoro-phenyl)-2-hydroxy-acetamide] |  | 0.001 to 0.025 | 0.001 to 0.025
[2H]C([2H])([2H])c1nc(-c2ccc(NC(=O)C(O)c3cc(F)cc(F)c3)cc2C)c2c(N)ncc(C)n12 (centres unmarked) [Example 50, N-[4-[8-amino-5-methyl-3-(trideuteriomethyl)imidazo[1,5-a]pyrazin-1-yl]-3-methyl-phenyl]-2-(3,5-difluoro-phenyl)-2-hydroxy-acetamide] | 0.001 to 0.025 | 0.001 to 0.025 | 
[2H]C([2H])([2H])c1nc(-c2ccc(NC(=O)C(O)c3cc(F)cc(F)c3)cc2C)c2c(N)ncc(C)n12 (centres unmarked) [Example 51, N-[4-[8-amino-5-methyl-3-(trideuteriomethyl)imidazo[1,5-a]pyrazin-1-yl]-3-methyl-phenyl]-2-(3,5-difluoro-phenyl)-2-hydroxy-acetamide] | 0.051 to 0.1 | 0.001 to 0.025 | 
[2H]C([2H])([2H])c1nc(-c2ccc(NC(=O)C(O)c3cc(F)cc(C(F)(F)F)c3)cc2C)c2c(N)nc(C)cn12 (centres unmarked) [Example 52, N-[4-[8-amino-6-methyl-3-(trideuteriomethyl)imidazo[1,5-a]pyrazin-1-yl]-3-methyl-phenyl]-2-[3-fluoro-5-(trifluoromethyl)phenyl]-2-hydroxy-acetamide] | 0.026 to 0.05 | 0.001 to 0.025 | 
[2H]C([2H])([2H])c1nc(-c2ccc(NC(=O)C(O)c3cc(F)cc(C(F)(F)F)c3)cc2C)c2c(N)nc(C)cn12 (centres unmarked) [Example 53, N-[4-[8-amino-6-methyl-3-(trideuteriomethyl)imidazo[1,5-a]pyrazin-1-yl]-3-methyl-phenyl]-2-[3-fluoro-5-(trifluoromethyl)phenyl]-2-hydroxy-acetamide] | 0.501 to 1 | 0.101 to 0.25 | 
[2H]C([2H])([2H])c1nc(-c2ccc(NC(=O)C(O)c3cc(F)cc(C(F)(F)F)c3)cc2C)c2c(N)ncc(C)n12 (centres unmarked) [Example 54, N-[4-[8-amino-5-methyl-3-(trideuteriomethyl)imidazo[1,5-a]pyrazin-1-yl]-3-methyl-phenyl]-2-[3-fluoro-5-(trifluoromethyl)phenyl]-2-hydroxy-acetamide] | 0.001 to 0.025 | 0.001 to 0.025 | 
[2H]C([2H])([2H])c1nc(-c2ccc(NC(=O)C(O)c3cc(F)cc(C(F)(F)F)c3)cc2C)c2c(N)ncc(C)n12 (centres unmarked) [Example 55, N-[4-[8-amino-5-methyl-3-(trideuteriomethyl)imidazo[1,5-a]pyrazin-1-yl]-3-methyl-phenyl]-2-[3-fluoro-5-(trifluoromethyl)phenyl]-2-hydroxy-acetamide] | 0.101 to 0.25 | 0.001 to 0.025 | 
[2H]C([2H])([2H])c1nc(-c2ccc(NC(=O)C(O)c3cc(F)cc(C(F)(F)F)c3)cc2C)c2c(N)ncc(Cl)n12 (centres unmarked) [Example 56, N-[4-[8-amino-5-chloro-3-(trideuteriomethyl)imidazo[1,5-a]pyrazin-1-yl]-3-methyl-phenyl]-2-[3-fluoro-5-(trifluoromethyl)phenyl]-2-hydroxy-acetamide] | 0.001 to 0.025 | 0.001 to 0.025 | 
[2H]C([2H])([2H])c1nc(-c2ccc(NC(=O)C(O)c3cc(F)cc(C(F)(F)F)c3)cc2C)c2c(N)ncc(Cl)n12 (centres unmarked) [Example 57, N-[4-[8-amino-5-chloro-3-(trideuteriomethyl)imidazo[1,5-a]pyrazin-1-yl]-3-methyl-phenyl]-2-[3-fluoro-5-(trifluoromethyl)phenyl]-2-hydroxy-acetamide] | 0.026 to 0.05 | 0.001 to 0.025 | 
Cc1cc(NC(=O)C(O)c2cc(F)cc(C(F)(F)F)c2)ccc1-c1nc(C)n2c(C)cnc(N)c12 (centres unmarked) [Example 58, N-(4-(8-amino-3,5-dimethylimidazo [1,5-a]pyrazin-1-yl)-3-methylphenyl)-2-(3-fluoro-5-(trifluoromethyl)phenyl)-2-hydroxyacetamide] | 0.026 to 0.05 | 0.001 to 0.025 | 
Cc1cc(NC(=O)C(O)c2cc(F)cc(C(F)(F)F)c2)ccc1-c1nc(C)n2c(C)cnc(N)c12 (centres unmarked) [Example 59, N-(4-(8-amino-3,5-dimethylimidazo [1,5-a]pyrazin-1-yl)-3-methylphenyl)-2-(3-fluoro-5-(trifluoromethyl)phenyl)-2-hydroxyacetamide] | 0.101 to 0.25 | 0.001 to 0.025 | 
[2H]C([2H])([2H])c1nc(-c2ccc(NC(=O)C(O)c3cc(F)cc(C(F)(F)F)c3)cc2C)c2c(N)ncc(C(F)(F)F)n12 (centres unmarked) [Example 60, N-[4-[8-amino-3-(trideuteriomethyl)-5-(trifluoromethyl)imidazo[1,5-a]pyrazin-1-yl]-3-methyl-phenyl]-2-[3-fluoro-5-(trifluoromethyl)phenyl]-2-hydroxy-acetamide] | 0.026 to 0.05 | 0.001 to 0.025 | 
[2H]C([2H])([2H])c1nc(-c2ccc(NC(=O)C(O)c3cc(F)cc(C(F)(F)F)c3)cc2C)c2c(N)ncc(C(F)(F)F)n12 (centres unmarked) [Example 61, N-[4-[8-amino-3-(trideuteriomethyl)-5-(trifluoromethyl)imidazo[1,5-a]pyrazin-1-yl]-3-methyl-phenyl]-2-[3-fluoro-5-(trifluoromethyl)phenyl]-2-hydroxy-acetamide] | 0.251 to 0.5 | 0.051 to 0.1 | 
Cc1cc(F)cc(C(O)C(=O)Nc2ccc(-c3nc(C)n4c(C)cnc(N)c34)c(C)c2)c1 (centres unmarked) [Example 62, N-(4-(8-amino-3,5-dimethylimidazo [1,5-a]pyrazin-1-yl)-3-methyl-phenyl)-2-(3-fluoro-5-methylphenyl)-2-hydroxyacetamide] | 0.001 to 0.025 | 0.001 to 0.025 | 
Cc1cc(F)cc(C(O)C(=O)Nc2ccc(-c3nc(C)n4c(C)cnc(N)c34)c(C)c2)c1 (centres unmarked) [Example 63, N-(4-(8-amino-3,5-dimethylimidazo [1,5-a]pyrazin-1-yl)-3-methyl-phenyl)-2-(3-fluoro-5-methylphenyl)-2-hydroxyacetamide] | 0.051 to 0.1 | 0.001 to 0.025 | 
Cc1cc(NC(=O)C(O)c2cccc(F)c2)c(F)cc1-c1nc(C)n2c(C)cnc(N)c12 (centres unmarked) [Example 64, N-(4-(8-amino-3,5-dimethylimidazo [1,5-a]pyrazin-1-yl)-2-fluoro-5-methylphenyl)-2-(3-fluorophenyl)-2-hydroxy-acetamide] | 0.501 to 1 | 0.051 to 0.1 | 
Cc1cc(NC(=O)C(O)c2cccc(F)c2)c(F)cc1-c1nc(C)n2c(C)cnc(N)c12 (centres unmarked) [Example 65, N-(4-(8-amino-3,5-dimethylimidazo [1,5-a]pyrazin-1-yl)-2-fluoro-5-methylphenyl)-2-(3-fluorophenyl)-2-hydroxy-acetamide] | 0.001 to 0.025 | 0.001 to 0.025 | 
CCc1cc(NC(=O)C(O)c2cccc(F)c2)ccc1-c1nc(C)n2c(C)cnc(N)c12 (centres unmarked) [Example 66, N-(4-(8-amino-3,5-dimethylimidazo [1,5-a]pyrazin-1-yl)-3-ethylphenyl)-2-(3-fluorophenyl)-2-hydroxy-acetamide] | 0.026 to 0.05 | 0.001 to 0.025 | 
CCc1cc(NC(=O)C(O)c2cccc(F)c2)ccc1-c1nc(C)n2c(C)cnc(N)c12 (centres unmarked) [Example 67, N-(4-(8-amino-3,5-dimethylimidazo [1,5-a]pyrazin-1-yl)-3-ethylphenyl)-2-(3-fluorophenyl)-2-hydroxy-acetamide] | 0.101 to 0.25 | 0.001 to 0.025 | 
